Measured values taken from patent publication US11701358B2, “Methods of inhibiting serum glucocorticoid induced kinase 1 (SGKI) as a treatment for salt and water balance diseases” (Indiana University Research and Technology Corporation, priority 2017, dated 2023).
Entries after “also recorded” stand apart in the source; their conditions may differ.

Key:
[1] = test system: PCP-R porcine choroid plexus cell line; assay: Short-circuit current, TRPV4 agonist-stimulated transepithelial ion transport in PCP-R cells; format: cell-based; conditions: PCP-R cells in Ussing chamber, pretreatment at t=-10 minutes, agonist at t=0
Description: PCP-R (porcine choroid plexus, high resistance) cell line was grown to confluence on permeable Transwell supports. The PCP-R cell line is grown in tissue culture media consisting of Dulbecco's Minimal Essential media (DMEM) supplemented with 10% fetal bovine serum and penicillin (100 U/ml) and streptomycin ([…]). Cultured cells in both flasks and on Transwells had the media changed thrice weekly. After attaining a high resistance phenotype (days 10-12 after seeding on the Transwells), the cultures were removed from the plastic supports and mounted in an Ussing chamber for electrophysiological measurements (short-circuit current (SCC)) of net transepithelial ion transport. A negative deflection is indicative of anion absorption (CSF to blood) and/or cation secretion (blood to CSF). GSK1016797 is an agonist of TRPV4, an osmo- and mechano-sensitive channel which, when stimulated, allows Ca^2+ to enter the cells. The increased intracellular Ca^2+ secondarily stimulates Ca^2+-sensitive channels. In the case of the PCP-R cells, this process stimulates Ca^2+-sensitive K^+ channels causing the secretion of K^+ and, secondarily, water into the cerebrospinal fluid. […] All cultures were stimulated with GSK1016797 at time t=0.

[2] = test system: epithelial sodium channel (ENaC); assay: Short-circuit current, basal ENaC activity in mCCD cells; format: cell-based, mouse; conditions: mCCD cell monolayer, Ussing chamber
Description: The mouse cortical collecting duct (mCCD) cell line is a continuous, high resistance cell line that has the characteristics of the principal cells that line the kidney distal tubules. In this segment of the tubules, a transport protein, the epithelial sodium channel (ENaC), is responsible for the reabsorption of sodium from the kidney filtrate and the return of this ion to the bloodstream. As the concentration of sodium increases in the blood, the increased osmotic concentration will cause a compensatory movement of water from cells all over the body into the blood and an increase in blood volume and blood pressure. ENaC is an important transport protein and its function plays a major role in the regulation of whole body salt and water balance. Increases in the activity of ENaC can cause hypertension and many hypertension medications target the intracellular signaling pathways that culminate in the activation of ENaC. For example, ENaC is inhibited by the diuretic, amiloride.
The mCCD cell line was grown in tissue culture media consisting of Dulbecco's Minimal Essential media (DMEM):Hams F12 supplemented with 5% fetal bovine serum and penicillin (100 U/ml) and streptomycin ([…]). Cultured cells in both flasks and on Transwells had the media changed thrice weekly. […] In the current Example, the basal activity of ENaC in the cells is the parameter that is monitored.

[3] = test system: Wpk rat model (TMEM67-/-) of hydrocephalus; assay: Head dimensions in homozygous Wpk rat model of hydrocephalus; format: in vivo; conditions: homozygous Wpk rats
Description: The effectiveness of SI 113 was tested in a genetic model of hydrocephalus, the Wpk rat model. In this model, the homozygous animals (TMEM67−/−) carry a single point mutation in TMEM67, one of a complex of proteins involved in the formation of the primary cilium. The homozygous affected animals have severe hydrocephalus and renal cystic disease. They typically survive for 18-21 days after birth, and the developing hydrocephalus can be monitored by measuring the head size in a manner analogous to measuring head sizes in human children.
In FIG. 1, the head sizes in both the horizontal and vertical dimensions are shown.

[4] = test system: heterozygous Wpk rat model of hydrocephalus; assay: MRI of lateral ventricular volumes in heterozygous Wpk rat model; format: in vivo; conditions: heterozygous Wpk rats, 8 mg/kg BW i.p. daily for 8 days, versus vehicle, P=0.039 Mann-Whitney
Description: FIG. 4 depicts MRI quantification of the effects of SI113 on hydrocephalus in the heterozygous Wpk rat model. The bars represent the difference in volumes of the lateral ventricles measured at postnatal (P) day 7 and P15. The volumes were measured by MRI before treatment with vehicle or SI 113 (8 mg/kg BW; i.p. daily) and again after 8 days of treatment. The difference in the volume for each of the animals was calculated and the averages ±SEM are shown in the bar graph. The number of animals in each study is noted as n. Approximately equal numbers of male and female animals were used.
The Wpk rat model is unique in that the genetic defect causes a severe hydrocephalus in the homozygous affected animals (see FIG. 1) and a mild hydrocephalus in the heterozygous animals (see FIG. 4). The heterozygous animals live for at least year. […] In this model the hydrocephalus is not severe enough to change head dimensions so the effect of the SI113 on the hydrocephalus was measured using MRI. […] Volumes of interest on lateral ventricles were determined from threshold based image segmentation of native cerebrospinal fluid contrast, and images were quantified for lateral ventricular volumes using Analyze 12.0. The MRIs were conducted on each animal on day 7 and day 15 and the differences in lateral ventricular volumes were calculated (FIG. 4).

OCCNc1nc(NCCc2ccccc2)c2cnn(/C=C/c3ccccc3)c2n1 [SI 113, 2-({1-(2-phenylethenyl)-4-[(2-phenylethy)amino]-1H-pyrazolo[3,4-d]pyrimidin-6-yl}amino)ethanol]
response (short-circuit current) to TRPV4 agonist GSK1016797 [1]: completely blocked | short-circuit current (SCC), transepithelial sodium transport via ENaC [2]: caused a decrease in the SCC | head dimensions of treated hydrocephalic animals compared with wild-type animals ([3]; after treatment post-natal day 7 to day 15): not statistically different than the wild-type animals | head dimensions (horizontal and vertical) of hydrocephalic animals ([3]; treatment post-natal day 7 to day 15, versus vehicle, *p=0.009, # p=0.03, 1-tailed t-test): significantly decreased the head dimensions | hydrocephalus, difference in lateral ventricular volumes between P7 and P15 by MRI [4]: statistically significant difference; also recorded: effectively decreased the hydrocephalus

N=C(N)NC(=O)c1nc(Cl)c(N)nc1N [amiloride, reference compound]
short-circuit current (SCC), transepithelial sodium transport via ENaC [2]: strongly inhibited
